{"source": "paper PMC6378217", "about": "“The lysyl oxidase like 2/3 enzymatic inhibitor, PXS‐5153A, reduces crosslinks and ameliorates fibrosis” (Journal of Cellular and Molecular Medicine, 2018)", "key": {"[1]": {"assay": "Pharmacokinetic study in mice", "format": "in vivo, C57/BL6 mice", "settings": "mouse", "procedure": "Studies were performed by Pharmalegacy (Shanghai, China), GVK (Hyderabad, India) and Sundia, (Shanghai, China), with local ethics approval. Wistar rats were administered PXS‐5153A orally at 10 mg/kg or intravenously at 5 mg/kg, while C57/BL6 mice received PXS‐5153A orally or intravenously at 5 mg/kg. Plasma was analysed for PXS‐5153A by high‐performance liquid chromatography‐mass spectrometry/mass spectrometry (LCMS/MS)."}, "GABAA, Muscimol, Central": {"test_system": "GABAA, Muscimol, Central", "assay": "Eurofins Hit Profiling Screen", "format": "binding", "settings": "10 μmol/L"}, "Recombinant human LOXL3": {"biological_target": "T1, Recombinant human LOXL3 (Homo sapiens, UniProt P58215)", "T1 construct": "purchased R&D Systems", "T1 sequence (P58215 26-753)": "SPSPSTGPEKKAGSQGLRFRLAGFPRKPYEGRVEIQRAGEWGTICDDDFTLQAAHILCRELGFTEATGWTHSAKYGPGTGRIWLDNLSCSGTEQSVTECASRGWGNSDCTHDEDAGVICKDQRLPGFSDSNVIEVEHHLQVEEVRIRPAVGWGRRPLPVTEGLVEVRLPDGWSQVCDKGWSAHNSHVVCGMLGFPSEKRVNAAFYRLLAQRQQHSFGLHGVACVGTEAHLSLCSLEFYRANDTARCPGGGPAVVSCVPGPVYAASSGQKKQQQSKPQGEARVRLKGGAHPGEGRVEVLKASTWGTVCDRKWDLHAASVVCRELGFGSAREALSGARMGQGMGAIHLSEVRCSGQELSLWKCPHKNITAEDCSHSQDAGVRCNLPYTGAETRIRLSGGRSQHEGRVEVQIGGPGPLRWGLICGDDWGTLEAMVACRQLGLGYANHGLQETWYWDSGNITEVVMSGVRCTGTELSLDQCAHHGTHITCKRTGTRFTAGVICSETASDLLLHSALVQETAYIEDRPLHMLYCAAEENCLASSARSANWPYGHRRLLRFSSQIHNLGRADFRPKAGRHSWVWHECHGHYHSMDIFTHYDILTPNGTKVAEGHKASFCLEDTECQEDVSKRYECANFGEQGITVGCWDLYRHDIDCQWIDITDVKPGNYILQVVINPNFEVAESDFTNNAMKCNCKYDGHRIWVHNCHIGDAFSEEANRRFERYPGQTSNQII", "assay": "Amplex-Red fluorometric enzymatic activity assay, recombinant human LOXL3", "format": "biochemical", "settings": "30 minute pre-incubation; average of at least three experiments", "procedure": "(§1) The measurement of the enzymatic activity of all lysyl oxidase family members was based on the detection of hydrogen peroxide with an Amplex‐Red oxidation assay, as described in Zhou et al26 Recombinant human semicarbazide sensitive amine oxidase (SSAO/VAP1), diamine oxidase (DAO) and monoamine oxidases A and B (MAO‐A and MAO‐B) assays were performed as previously described.27 For detailed enzymatic procedures, see supporting information.\n(§2) The measurement of the enzymatic activity of all lysyl oxidase family members was based on the detection of hydrogen peroxide with an Amplex-Red oxidation assay, as described in Zhou et al.[1]; miniaturised in 384 well format, with the appropriate combination of substrate and assay buffer for each individual enzyme. After a 30 minute pre-incubation of the enzyme at 37 °C with the test compound (or with different incubation times for the time-dependency assay), one volume of reaction mixture containing 120 μM Amplex Red (AR) (Life Technologies), 1.5 U/mL horseradish peroxidase (HRP) (Sigma-Aldrich) and the specific substrate was added to each sample. The relative fluorescence units (RFU) were then measured every 2.5 minutes for 30 minutes at 37°C, excitation 565 nm and emission 590, on a BMG Clariostar Microplate Reader. […]"}, "Prostanoid EP4": {"biological_target": "Prostanoid EP4 (Homo sapiens, UniProt P35408)", "sequence (P35408 whole entry)": "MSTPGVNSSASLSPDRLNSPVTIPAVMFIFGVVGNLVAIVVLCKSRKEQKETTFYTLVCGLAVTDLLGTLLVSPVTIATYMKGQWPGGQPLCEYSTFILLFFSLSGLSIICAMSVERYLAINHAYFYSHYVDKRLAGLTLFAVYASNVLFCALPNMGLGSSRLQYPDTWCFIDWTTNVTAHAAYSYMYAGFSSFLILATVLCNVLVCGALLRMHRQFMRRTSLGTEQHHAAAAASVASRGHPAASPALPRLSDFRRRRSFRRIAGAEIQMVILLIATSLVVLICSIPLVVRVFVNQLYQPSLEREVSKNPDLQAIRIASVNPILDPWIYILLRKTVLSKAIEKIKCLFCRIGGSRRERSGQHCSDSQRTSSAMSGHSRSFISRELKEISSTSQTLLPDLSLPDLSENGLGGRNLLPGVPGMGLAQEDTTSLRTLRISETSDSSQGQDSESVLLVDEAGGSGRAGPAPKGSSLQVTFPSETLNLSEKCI", "assay": "Eurofins Hit Profiling Screen", "format": "binding", "settings": "10 μmol/L"}, "Adenosine A1": {"biological_target": "Adenosine A1 (Homo sapiens, UniProt P30542)", "sequence (P30542 whole entry)": "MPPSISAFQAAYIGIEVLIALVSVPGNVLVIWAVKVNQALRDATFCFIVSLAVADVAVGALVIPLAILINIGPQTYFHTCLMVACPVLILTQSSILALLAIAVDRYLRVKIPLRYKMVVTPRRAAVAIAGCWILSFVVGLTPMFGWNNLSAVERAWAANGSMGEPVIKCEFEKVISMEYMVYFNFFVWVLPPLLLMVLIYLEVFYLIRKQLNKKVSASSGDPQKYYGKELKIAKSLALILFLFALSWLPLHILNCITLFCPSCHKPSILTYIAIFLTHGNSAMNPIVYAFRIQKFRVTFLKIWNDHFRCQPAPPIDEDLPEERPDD", "assay": "Eurofins Hit Profiling Screen", "format": "binding", "settings": "10 μmol/L"}, "LOXL2 [2]": {"biological_target": "T2, LOXL2 (Homo sapiens, UniProt Q9Y4K0)", "T2 sequence (Q9Y4K0 26-774)": "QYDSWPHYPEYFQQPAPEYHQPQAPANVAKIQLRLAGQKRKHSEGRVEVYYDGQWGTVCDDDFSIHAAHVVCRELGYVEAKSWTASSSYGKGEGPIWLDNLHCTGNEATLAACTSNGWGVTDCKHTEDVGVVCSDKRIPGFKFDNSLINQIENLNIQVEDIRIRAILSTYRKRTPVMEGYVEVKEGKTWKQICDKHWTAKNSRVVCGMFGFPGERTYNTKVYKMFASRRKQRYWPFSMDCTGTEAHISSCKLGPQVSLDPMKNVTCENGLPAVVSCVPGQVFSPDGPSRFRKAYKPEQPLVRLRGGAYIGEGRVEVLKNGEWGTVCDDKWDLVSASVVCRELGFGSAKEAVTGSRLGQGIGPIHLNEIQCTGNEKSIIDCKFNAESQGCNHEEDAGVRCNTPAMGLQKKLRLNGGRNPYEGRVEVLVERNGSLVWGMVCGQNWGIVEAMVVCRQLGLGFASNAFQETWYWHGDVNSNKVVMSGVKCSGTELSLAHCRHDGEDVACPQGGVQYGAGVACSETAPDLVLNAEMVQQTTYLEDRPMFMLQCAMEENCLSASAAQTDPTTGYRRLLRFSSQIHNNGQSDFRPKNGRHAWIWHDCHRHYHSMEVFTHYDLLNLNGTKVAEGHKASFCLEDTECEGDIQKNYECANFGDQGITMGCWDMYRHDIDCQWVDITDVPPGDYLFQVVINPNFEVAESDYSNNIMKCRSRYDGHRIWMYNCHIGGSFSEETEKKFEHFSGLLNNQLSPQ", "assay": "Amplex-Red fluorometric enzymatic activity assay, recombinant human LOXL2", "format": "biochemical", "design": "purchased R&D Systems", "procedure": "as §1\nThe measurement of the enzymatic activity of all lysyl oxidase family members was based on the detection of hydrogen peroxide with an Amplex-Red oxidation assay, as described in Zhou et al.[1]; miniaturised in 384 well format, with the appropriate combination of substrate and assay buffer for each individual enzyme. After a 30 minute pre-incubation of the enzyme at 37 °C with the test compound (or with different incubation times for the time-dependency assay), one volume of reaction mixture containing 120 μM Amplex Red (AR) (Life Technologies), 1.5 U/mL horseradish peroxidase (HRP) (Sigma-Aldrich) and the specific substrate was added to each sample. The relative fluorescence units (RFU) were then measured every 2.5 minutes for 30 minutes at 37°C, excitation 565 nm and emission 590, on a BMG Clariostar Microplate Reader. All the substrates were used at concentrations corresponding to their Km towards the corresponding enzyme, or with a range of different concentrations for the substrate competition experiments.\nLysyl oxidases assay buffer contained 1.2 M urea, 50 mM sodium borate buffer, pH 8.2 and 100 µM β-aminoproprionitrile (BAPN, Sigma-Aldrich) was used for low control.\nRecombinant human LOXL1 was expressed and purified from cDNA (GeneArt) and 10 mM putrescine was used as substrate. Recombinant human and mouse LOXL2 (R&D Systems) were challenged with 5 mM putrescine (Sigma-Aldrich) as the substrate. Rat and dog recombinant LOXL2 were amplified and purified in house from HEK-293 clones kindly provided by Dr. Fernando Rodríguez Pascual, Madrid University, and used in the same conditions as for the human form. 2 mM putrescine was used as the substrate for recombinant human LOXL3 (R&D Systems) and LOXL4 (Dr. Fernando Rodríguez Pascual, university of Madrid, Spain) assays."}, "Adrenergic α1A": {"biological_target": "Adrenergic α1A (Rattus norvegicus, UniProt P43140)", "sequence (P43140 whole entry)": "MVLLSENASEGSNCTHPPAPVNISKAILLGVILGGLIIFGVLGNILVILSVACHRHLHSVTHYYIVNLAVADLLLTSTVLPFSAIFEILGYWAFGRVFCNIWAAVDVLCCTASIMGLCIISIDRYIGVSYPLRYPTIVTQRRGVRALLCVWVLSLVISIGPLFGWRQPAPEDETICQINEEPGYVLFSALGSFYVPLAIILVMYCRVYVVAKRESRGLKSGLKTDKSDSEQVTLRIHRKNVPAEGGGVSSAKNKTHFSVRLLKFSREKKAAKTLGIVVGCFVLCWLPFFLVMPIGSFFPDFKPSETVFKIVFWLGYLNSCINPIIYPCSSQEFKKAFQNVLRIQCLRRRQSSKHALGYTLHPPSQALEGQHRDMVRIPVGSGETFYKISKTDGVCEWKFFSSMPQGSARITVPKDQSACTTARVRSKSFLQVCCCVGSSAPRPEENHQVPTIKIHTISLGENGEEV", "assay": "Eurofins Hit Profiling Screen", "format": "binding", "settings": "10 μmol/L"}, "LOXL2 [3]": {"test_system": "LOXL2", "assay": "LOXL2 enzymatic activity across all mammalian species tested", "format": "biochemical", "procedure": "as §1, §2"}, "MAO-B": {"biological_target": "MAO-B (Homo sapiens, UniProt P27338)", "sequence (P27338 whole entry)": "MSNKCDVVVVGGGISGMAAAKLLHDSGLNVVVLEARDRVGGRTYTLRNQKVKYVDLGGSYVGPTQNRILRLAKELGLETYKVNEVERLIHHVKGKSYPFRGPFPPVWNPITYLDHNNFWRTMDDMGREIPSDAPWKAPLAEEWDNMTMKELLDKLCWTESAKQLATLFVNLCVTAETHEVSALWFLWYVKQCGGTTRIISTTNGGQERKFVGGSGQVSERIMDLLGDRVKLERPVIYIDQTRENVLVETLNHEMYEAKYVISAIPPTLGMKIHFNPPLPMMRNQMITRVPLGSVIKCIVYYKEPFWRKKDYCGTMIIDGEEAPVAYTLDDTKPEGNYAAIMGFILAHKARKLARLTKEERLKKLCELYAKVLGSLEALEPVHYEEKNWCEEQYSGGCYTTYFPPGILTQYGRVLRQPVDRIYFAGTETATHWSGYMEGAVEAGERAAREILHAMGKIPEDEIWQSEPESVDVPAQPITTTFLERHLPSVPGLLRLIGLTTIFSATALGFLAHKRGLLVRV", "assay": "MAO-B enzymatic activity assay", "format": "biochemical", "procedure": "as §1\nRecombinant human semicarbazide sensitive amine oxidase (SSAO/VAP1), diamine oxidase (DAO) and monoamine oxidases A and B (MAO-A and MAO-B) assays were performed as previously described."}, "Histamine H1": {"biological_target": "Histamine H1 (Homo sapiens, UniProt P35367)", "sequence (P35367 whole entry)": "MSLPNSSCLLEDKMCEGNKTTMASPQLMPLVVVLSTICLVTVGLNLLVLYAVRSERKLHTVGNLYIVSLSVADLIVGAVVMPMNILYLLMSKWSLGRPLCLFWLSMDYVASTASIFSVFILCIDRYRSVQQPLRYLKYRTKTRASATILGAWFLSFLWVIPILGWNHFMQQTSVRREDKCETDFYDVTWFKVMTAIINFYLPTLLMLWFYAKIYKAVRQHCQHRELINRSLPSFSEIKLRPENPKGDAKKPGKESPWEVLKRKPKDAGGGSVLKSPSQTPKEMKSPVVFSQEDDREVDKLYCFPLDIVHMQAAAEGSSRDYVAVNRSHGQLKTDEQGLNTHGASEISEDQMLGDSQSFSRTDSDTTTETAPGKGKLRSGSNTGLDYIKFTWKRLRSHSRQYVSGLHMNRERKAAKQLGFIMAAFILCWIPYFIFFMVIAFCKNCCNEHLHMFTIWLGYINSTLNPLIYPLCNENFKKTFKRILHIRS", "assay": "Eurofins Hit Profiling Screen", "format": "binding", "settings": "10 μmol/L"}, "Recombinant dog LOXL2": {"biological_target": "T3, Recombinant dog LOXL2 (Canis lupus familiaris, UniProt A0A8I3P9Y5)", "T3 construct": "made in house; host or cells: HEK-293 clones provided by Dr. Fernando Rodríguez Pascual", "T3 sequence (A0A8I3P9Y5 1-777)": "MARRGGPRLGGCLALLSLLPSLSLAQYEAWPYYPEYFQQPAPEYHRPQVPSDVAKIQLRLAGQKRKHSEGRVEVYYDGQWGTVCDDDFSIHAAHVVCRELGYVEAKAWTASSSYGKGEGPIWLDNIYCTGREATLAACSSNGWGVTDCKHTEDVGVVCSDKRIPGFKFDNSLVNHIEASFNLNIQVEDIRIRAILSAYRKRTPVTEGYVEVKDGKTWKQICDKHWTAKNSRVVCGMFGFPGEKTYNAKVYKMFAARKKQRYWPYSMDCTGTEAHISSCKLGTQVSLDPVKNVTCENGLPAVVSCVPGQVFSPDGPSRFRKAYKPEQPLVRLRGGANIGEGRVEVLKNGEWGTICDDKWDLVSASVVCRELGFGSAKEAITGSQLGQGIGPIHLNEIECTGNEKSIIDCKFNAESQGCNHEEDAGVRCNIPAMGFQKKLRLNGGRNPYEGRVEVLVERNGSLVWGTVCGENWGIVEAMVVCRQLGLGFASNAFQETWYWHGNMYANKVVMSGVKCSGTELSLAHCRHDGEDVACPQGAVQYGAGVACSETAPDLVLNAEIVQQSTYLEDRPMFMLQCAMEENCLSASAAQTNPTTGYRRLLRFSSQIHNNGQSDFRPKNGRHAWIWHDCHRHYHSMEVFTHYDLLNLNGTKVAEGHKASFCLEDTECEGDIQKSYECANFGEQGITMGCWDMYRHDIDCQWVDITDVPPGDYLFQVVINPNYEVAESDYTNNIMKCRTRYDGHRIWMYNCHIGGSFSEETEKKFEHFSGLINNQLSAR", "assay": "Amplex-Red fluorometric enzymatic activity assay, recombinant dog LOXL2", "format": "biochemical", "settings": "30 minute pre-incubation; average of at least three experiments", "procedure": "as §1, §2"}, "[4]": {"settings": "30 minute pre-incubation at 37 °C, average of at least three experiments"}}, "data": [{"smiles": "Cc1c(-c2cccc(S(=O)(=O)N(C)C)c2)c2ncccc2n1C/C(F)=C/CN.Cl.Cl", "note": "[PXS-5153A]", "values": [{"measurement": "Apparent half-life, t1/2", "setting": "[1]; intravenous 5 mg/kg", "value": 1.6, "unit": "h"}, {"measurement": "Clearance CL", "setting": "[1]; intravenous 5 mg/kg", "value": 673, "unit": "mL/min/kg"}, {"measurement": "Time of maximal concentration Tmax", "setting": "[1]; intravenous 5 mg/kg", "value": 0.08, "unit": "h"}, {"measurement": "Apparent concentration at curve maximum Cmax", "setting": "[1]; oral 5 mg/kg", "value": 113, "unit": "ng/mL"}, {"measurement": "Clearance CL", "setting": "[1]; oral 5 mg/kg", "value": 593, "unit": "mL/min/kg"}, {"measurement": "Time of maximal concentration Tmax", "setting": "[1]; oral 5 mg/kg", "value": 1, "unit": "h"}, {"measurement": "Bioavailability", "setting": "[1]; oral 5 mg/kg (i.v. 5 mg/kg)", "value": 40, "unit": "%"}, {"measurement": "% inhibition", "setting": "GABAA, Muscimol, Central", "value": -7, "unit": "%"}, {"measurement": "IC50", "setting": "Recombinant human LOXL3", "value": 63, "unit": "nM"}, {"measurement": "pIC50 ± SD", "setting": "Recombinant human LOXL3", "value": "7.2 ± 0.23"}, {"measurement": "% inhibition", "setting": "Prostanoid EP4", "value": 11, "unit": "%"}, {"measurement": "% inhibition", "setting": "Adenosine A1", "value": 9, "unit": "%"}, {"measurement": "IC50", "setting": "LOXL2 [2]; [4]", "value": 21, "unit": "nM"}, {"measurement": "pIC50 ± SD", "setting": "LOXL2 [2]; [4]", "value": "7.7 ± 0.23"}, {"measurement": "selectivity for LOXL2 over LOX", "setting": "LOXL2 [2]; LOXL2 over LOX", "value": "> 40", "unit": "fold"}, {"measurement": "selectivity for LOXL2 over LOXL1", "setting": "LOXL2 [2]; LOXL2 over LOXL1", "value": "> 40", "unit": "fold"}, {"measurement": "selectivity over other related amine oxidases", "setting": "LOXL2 [2]; LOXL2 over other related amine oxidases", "value": "> 700", "unit": "fold"}, {"measurement": "rate of inactivation (kinact)", "setting": "LOXL2 [2]; mechanism-based irreversible inhibition, enzyme not given", "value": 0.20, "unit": "min⁻¹"}, {"measurement": "Ki", "setting": "LOXL2 [2]; mechanism-based irreversible inhibition, enzyme not given, read-out: apparent binding constant (Ki)", "value": 1010, "unit": "nM"}, {"measurement": "% inhibition", "setting": "Adrenergic α1A", "value": 20, "unit": "%"}, {"measurement": "IC50", "setting": "LOXL2 [3]", "value": "< 40", "unit": "nM"}, {"measurement": "IC50", "setting": "MAO-B", "value": "> 30000", "unit": "nM"}, {"measurement": "% inhibition", "setting": "Histamine H1", "value": 23, "unit": "%"}, {"measurement": "IC50", "setting": "Recombinant dog LOXL2", "value": 9, "unit": "nM"}, {"measurement": "pIC50 ± SD", "setting": "Recombinant dog LOXL2", "value": "8.04 ± 0.05"}]}]}
